One assay concerns the target PKR (Mus musculus, UniProt P53657). As to conditions: mouse model of beta-thalassemia; cited from earlier work.
Assay [1] deals with T1, Human pyruvate kinase R (PKR) (Homo sapiens, UniProt P30613).
T1 construct: Human pyruvate kinase R (PKR), residues 14-574; 6x-His (N, cleaved yes); 8x-Arg (N, cleaved yes); SUMO (N, cleaved yes); host or cells: E. coli
Nature of the assay: Biochemical assay for activation of pyruvate kinase R (Kinase-Glo luminescence, ATP generation). The settings on record: for AC50: 0.1 nM PKR, 2 mM FBP, 0.3 mM ADP, 0.1 mM PEP; for PKR % activation: maximal activation level relative to the activation level achieved by AG-348 @ 10 μM. The method, boiled down:
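E. coli-expressed human PKR, freed of its His-Arg-SUMO tag and purified by anion exchange and size exclusion, was tested for activation. Read-out was luminescent measurement of ATP generation with Kinase-Glo reagent.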
For orientation: Kinase-Glo measures the ATP left after a reaction by luminescence.

The target of assay [2] is T2, Pyruvate kinase M2 (PKM2) in H1299 cells (Homo sapiens, UniProt P14618).
T2 construct: endogenous in cells; host or cells: H1299
The experiment in a line: Cell based assay for activation of pyruvate kinase M2 in lung carcinoma cell line (NADH/LDH coupled assay on cell lysate). The settings on record: PKM2 cellular assay; for AC50: H1299 cells, 90 minutes with compound; for PKM2 % activation: maximal activation level relative to the activation level achieved by AG-348 @ 10 μM. How it is done:
Cell Based Assay for Activation of Pyruvate Kinase M2 in Lung Carcinoma Cell Line
H1299 cells were seeded in 96-well plates at 2,000 cells/well (100 uL). Treated plates were incubated overnight at 37° C. with 5% CO2. Compounds were diluted in complete media and added to cells in the presence of 1% DMSO. Cells were incubated with compound for 90 minutes at 37° C. and 5% CO2 before washing three times with PBS to remove residual compound and then lysed in lysis buffer (Cell Signaling). […] PKM2 activity was measured at steady state using a coupled enzyme activation system based on NADH consumption. PKM2 produces pyruvate and the coupled system uses lactate dehydrogenase (LDH) to reduce pyruvate to lactate with the concomitant oxidation of NADH to NAD^+. Conversion of NADH to NAD^+ was monitored using a SPECTROstar Nano plate reader (BMG Labtech) at a wavelength of 340 nm and subtraction of background absorbance measured at 750 nm. The change in NADH absorbance after PEP addition was monitored and slope obtained by subtracting baseline at 750 nm followed by least squares fitting to a simple linear regression model. A 10-point curve was generated to calculate the AC50 values by fitting the rates of NADH consumption against increasing concentration of compound.

T2 sequence (P14618 2-531 limits assumed): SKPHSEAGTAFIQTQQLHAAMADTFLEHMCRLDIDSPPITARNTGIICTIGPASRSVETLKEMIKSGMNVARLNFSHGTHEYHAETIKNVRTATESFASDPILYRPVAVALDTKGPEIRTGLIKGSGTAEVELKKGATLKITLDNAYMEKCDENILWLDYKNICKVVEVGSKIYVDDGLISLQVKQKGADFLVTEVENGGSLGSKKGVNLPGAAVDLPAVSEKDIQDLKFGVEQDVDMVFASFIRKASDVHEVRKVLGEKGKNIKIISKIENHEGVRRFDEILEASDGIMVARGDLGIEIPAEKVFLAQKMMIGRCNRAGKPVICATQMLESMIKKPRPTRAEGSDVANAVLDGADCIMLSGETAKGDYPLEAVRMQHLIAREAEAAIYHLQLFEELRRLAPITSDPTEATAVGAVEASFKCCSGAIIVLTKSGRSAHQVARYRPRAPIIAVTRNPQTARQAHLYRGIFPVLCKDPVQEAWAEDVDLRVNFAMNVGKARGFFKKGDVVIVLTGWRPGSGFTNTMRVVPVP
T1 sequence (P30613 14-574): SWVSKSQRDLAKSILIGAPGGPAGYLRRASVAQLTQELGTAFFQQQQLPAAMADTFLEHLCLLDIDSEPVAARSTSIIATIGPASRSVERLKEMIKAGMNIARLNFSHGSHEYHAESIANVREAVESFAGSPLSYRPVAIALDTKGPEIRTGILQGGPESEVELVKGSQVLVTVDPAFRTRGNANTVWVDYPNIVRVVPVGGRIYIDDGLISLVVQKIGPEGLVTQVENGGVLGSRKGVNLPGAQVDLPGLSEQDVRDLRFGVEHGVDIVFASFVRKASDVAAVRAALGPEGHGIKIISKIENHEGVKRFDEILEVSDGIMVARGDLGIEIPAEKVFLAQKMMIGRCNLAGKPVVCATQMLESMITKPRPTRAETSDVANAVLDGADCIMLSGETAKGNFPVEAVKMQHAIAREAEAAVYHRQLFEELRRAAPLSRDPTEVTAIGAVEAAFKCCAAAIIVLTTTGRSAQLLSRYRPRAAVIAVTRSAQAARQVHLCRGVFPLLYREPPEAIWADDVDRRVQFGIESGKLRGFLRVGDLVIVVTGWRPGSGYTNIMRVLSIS
Chain of PKR (P53657 whole entry): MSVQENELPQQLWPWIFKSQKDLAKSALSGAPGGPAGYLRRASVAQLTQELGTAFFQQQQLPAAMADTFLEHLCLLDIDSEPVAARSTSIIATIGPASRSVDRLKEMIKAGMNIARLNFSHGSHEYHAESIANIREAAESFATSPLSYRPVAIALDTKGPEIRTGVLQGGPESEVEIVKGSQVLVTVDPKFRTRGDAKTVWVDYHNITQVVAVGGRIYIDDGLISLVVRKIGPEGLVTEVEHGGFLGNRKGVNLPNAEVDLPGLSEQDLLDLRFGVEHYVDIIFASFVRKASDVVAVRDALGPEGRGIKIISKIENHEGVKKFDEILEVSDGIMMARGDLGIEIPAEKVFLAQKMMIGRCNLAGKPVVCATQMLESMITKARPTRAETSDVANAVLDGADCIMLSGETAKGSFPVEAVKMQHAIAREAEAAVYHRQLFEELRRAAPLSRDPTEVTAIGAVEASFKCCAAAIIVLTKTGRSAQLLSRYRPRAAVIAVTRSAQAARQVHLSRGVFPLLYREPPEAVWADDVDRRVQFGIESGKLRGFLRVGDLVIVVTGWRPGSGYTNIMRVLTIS

`O=C(c1ccc(NS(=O)(=O)c2cccc3cccnc23)cc1)N1CCN(CC2CC2)CC1` [AG-348, Mitapivat]: at PKR, the RBC parameters result is “improved”.

Regarding `N[C@H](C(=O)N1Cc2cn(S(=O)(=O)c3ccc4ncsc4c3)nc2C1)c1ccccc1` [Compound 14, (2S)-2-amino-1[2-(1,3-benzothiazole-6-sulfonyl)-2H,4H,5H,6H-pyrrolo[3,4-c]pyrazol-5-yl]-2-phenylethan-1-one], the AC50 came to 110 nM in assay [1] and 53 nM in assay [2].

With `N[C@@H](C(=O)N1Cc2cn(S(=O)(=O)c3ccc4ncsc4c3)nc2C1)c1ccccc1` [Compound 15, (2R)-2-amino-1-[2-(1,3-benzothiazole-6-sulfonyl)-2H,4H,5H,6H-pyrrolo[3,4-c]pyrazol-5-yl]-2-phenylethan-1-one], the AC50 is 45 nM in assay [1] and 26 nM in assay [2].

Take `N[C@@H](C(=O)N1Cc2cn(S(=O)(=O)c3ccc4ncsc4c3)nc2C1)c1ccccc1F` [Compound 17, (2R)-2-amino-1-[2-(1,3-benzothiazole-6-sulfonyl)-2H,4H,5H,6H-pyrrolo[3,4-c]pyrazol-5-yl]-2-(2-fluorophenyl)ethan-1-one]: the AC50 amounted to 24 nM in assay [1] and 23 nM in assay [2].

Consider `C[C@@H](O)[C@H](C(=O)N1Cc2cn(S(=O)(=O)c3ccc4c(c3)NCCO4)nc2C1)c1ccccc1` [Compound 23], for which, in assay [1], the AC50 is 56 nM and the PKR % activation amounted to 95%. Also, in assay [2], the AC50 was 61 nM and the PKM2 % activation came to 116%.

In the case of `C[C@@H](O)[C@H](C(=O)N1Cc2cn(S(=O)(=O)c3ccc4c(c3)NCCO4)nc2C1)c1ccccc1` [Compound 24], in assay [1], the AC50 was determined as 78 nM and the PKR % activation is on record as 65%. In assay [2], the AC50 was found to be 59 nM and the PKM2 % activation was 63%.

As for `N[C@@H](C(=O)N1Cc2cn(S(=O)(=O)c3ccc(OC(F)F)cc3)nc2C1)c1cccc(F)c1` [Compound 29, (2R)-2-amino-1-{2-[4-(difluoromethoxy)benzenesulfonyl]-2H,4H,5H,6H-pyrrolo[3,4-c]pyrazol-5-yl}-2-(3-fluorophenyl)ethan-1-one], the AC50 was 92 nM in assay [1] and 25 nM in assay [2].

In the case of `N[C@@H](C(=O)N1Cc2cn(S(=O)(=O)c3ccc4ncsc4c3)nc2C1)c1cccc(F)c1` [Compound 32, (2R)-2-amino-1-[2-(1,3-benzothiazole-6-sulfonyl)-2H,4H,5H,6H-pyrrolo[3,4-c]pyrazol-5-yl]-2-(3-fluorophenyl)ethan-1-one], the half-maximal activity concentration (AC50) in assay [1] came to 38 nM; in assay [2], 91 nM.

Take `Cc1cccc([C@@H](N)C(=O)N2Cc3cn(S(=O)(=O)c4ccc5ncsc5c4)nc3C2)c1` [Compound 37, (2R)-2-amino-1-[2-(1,3-benzothiazole-6-sulfonyl)-2H,4H,5H,6H-pyrrolo[3,4-c]pyrazol-5-yl]-2-(3-methylphenyl)ethan-1-one]: the AC50 in assay [1] amounted to 21 nM; in assay [2], 17 nM.

`O=C(N1Cc2cn(S(=O)(=O)c3ccc4ncsc4c3)nc2C1)C1(c2ccccc2)COC1` [Compound 40, 6-{[5-(3-phenyloxetane-3-carbonyl)-2H,4H,5H,6H-pyrrolo[3,4-c]pyrazol-2-yl]sulfonyl}-1,3-benzothiazole]: the AC50 in assay [1] came to 60 nM; in assay [2], 31 nM.

In the case of `O=C([C@H](O)c1ccccc1)N1Cc2cn(S(=O)(=O)c3ccc4ncsc4c3)nc2C1` [Compound 42, (2R)-1-[2-(1,3-benzothiazole-6-sulfonyl)-2H,4H,5H,6H-pyrrolo[3,4-c]pyrazol-5-yl]-2-hydroxy-2-phenylethan-1-one], the AC50 in assay [1] was 17 nM; in assay [2] it was 16 nM.

What is called AC50 is the concentration at which the activity in the assay is half-maximal.

Values taken from US20230159538A1, “PYRROLIDINE-PYRAZOLES AS PYRUVATE KINASE ACTIVATORS” (Global Blood Therapeutics, Inc., priority 2020, published 2023).
